Experiments:
[1] = test system: T1, PDE IV isozyme separated from U937 cultured cell; experiment: PDE IV inhibitory action; format: biochemical; conditions: cAMP as substrate, 30° C. for 20 minutes, Probit method
T1 construct: PDE IV isozyme separated from U937 cultured cell by an ion exchange chromatography was used
Procedure: PDE IV isozyme separated from U937 cultured cell by an ion exchange chromatography was used. The PDE IV isozyme was added to ethylene glycol so that the final concentration of the isozyme was 30% by weight, and the solution was stored at −20° C. The stored solution was dissolved in use. The enzyme activity was measured by using cAMP as a substrate.
On the other hand, the test compound was dissolved in dimethylsulfoxide (DMSO) so that the final concentration of the test compound was 1% by weight (2.5 μL/tube), and the resulting solution was named Solution B.
Formulation of the incubation buffer (pH 7.5): Tris-hydrochloric acid (50 mM), magnesium chloride (6 mM), dithiothreitol (2.5 mM), 5-nucleotidase (4 μg/mL), bovine serum albumin (0.23 mg/mL), and cAMP (1 μM)
A mixture of the Solution B of the test compound and the Solution A was incubated at 30° C. for 20 minutes. Then, 1 mL of a slurry of an anion exchange resin (AG1-X8, 200-400 mesh, chloride form; manufactured by Bio-Rad Laboratories, Inc.) was added thereto, and the reaction was stopped by adsorption of an unreacted substrate on the resin.
After the stop of the reaction, the reaction mixture was centrifuged at a centrifugal acceleration of 800×g for 10 minutes, and 250 μL of the resulting supernatant was transferred in a vial. To the vial was added 5 mL of ACS-II (a scintillator manufactured by Amarsham Bioscience), and a [^3H]-adenosine radio activity was measured as a PDE IV activity by a liquid scintillation counter.

[2] = test system: TNFα production; experiment: Inhibitory action on galactosamine- and LPS-induced TNFα production; format: in vivo; conditions: mouse, 0.5 mg/kg orally, serum TNFα one hour after galactosamine and LPS i.v., ELISA
Procedure: A dose (0.5 mg/kg) of the test compound suspended in 0.5% (W/V) CMC-Na aqueous solution was orally administered to a mouse. After one hour, galactosamine (800 mg/kg) and LPS (5 μg/kg) were intravenously administered to induce TNFα production. The amount of TNFα in serum one hour after the administration of galactosamine and LPS was measured by ELISA method.

[3] = target: T2, CYP2D6 (Homo sapiens, UniProt P10635); experiment: Inhibitory action on drug metabolizing enzyme (CYP2D6/AMMC high throughput inhibitor screening kit); format: in vitro ADME; conditions: CYP2D6 expression system microsome, AMMC substrate, 37° C. for 30 minutes
T2 construct: purchased BD Bioscience
T2 sequence (P10635 whole entry): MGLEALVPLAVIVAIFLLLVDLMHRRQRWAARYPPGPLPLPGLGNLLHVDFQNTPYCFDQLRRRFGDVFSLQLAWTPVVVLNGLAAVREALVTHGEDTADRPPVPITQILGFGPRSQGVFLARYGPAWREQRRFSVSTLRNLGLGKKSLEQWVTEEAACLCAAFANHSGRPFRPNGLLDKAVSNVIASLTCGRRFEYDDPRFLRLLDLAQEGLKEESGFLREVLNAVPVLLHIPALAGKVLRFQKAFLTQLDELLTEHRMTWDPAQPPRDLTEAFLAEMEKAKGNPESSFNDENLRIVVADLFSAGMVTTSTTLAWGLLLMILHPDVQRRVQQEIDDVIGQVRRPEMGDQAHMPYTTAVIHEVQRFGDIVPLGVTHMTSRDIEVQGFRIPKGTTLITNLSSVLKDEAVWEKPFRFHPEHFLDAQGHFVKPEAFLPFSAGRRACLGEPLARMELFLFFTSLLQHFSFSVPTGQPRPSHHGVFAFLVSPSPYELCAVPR
Procedure: (§1) Inhibitory actions on CYP2D6 and CYP3A4 were measured by using a CYP2D6/AMMC high throughput inhibitor screening kit and a CYP3A4/BFC high throughput inhibitor screening kit (both manufactured by BD Bioscience), respectively. That is, an NADPH generation system, a cofactor, and the test compound were dispersed in a 96-well plate, and AMMC (CYP2D6) and BFC (CYP3A4), which were fluorescent substrates, were added to each well. Further, CYP2D6 expression system microsome and CYP3A4 expression system microsome were added to each well and incubated at 37° C. for 30 minutes. […] Incidentally, as a control substance of this test, roflumilast was used.

[4] = target: T3, CYP3A4 (Homo sapiens, UniProt P08684); experiment: Inhibitory action on drug metabolizing enzyme (CYP3A4/BFC high throughput inhibitor screening kit); format: in vitro ADME; conditions: CYP3A4 expression system microsome, BFC substrate, 37° C. for 30 minutes
T3 construct: purchased BD Bioscience
T3 sequence (P08684 whole entry): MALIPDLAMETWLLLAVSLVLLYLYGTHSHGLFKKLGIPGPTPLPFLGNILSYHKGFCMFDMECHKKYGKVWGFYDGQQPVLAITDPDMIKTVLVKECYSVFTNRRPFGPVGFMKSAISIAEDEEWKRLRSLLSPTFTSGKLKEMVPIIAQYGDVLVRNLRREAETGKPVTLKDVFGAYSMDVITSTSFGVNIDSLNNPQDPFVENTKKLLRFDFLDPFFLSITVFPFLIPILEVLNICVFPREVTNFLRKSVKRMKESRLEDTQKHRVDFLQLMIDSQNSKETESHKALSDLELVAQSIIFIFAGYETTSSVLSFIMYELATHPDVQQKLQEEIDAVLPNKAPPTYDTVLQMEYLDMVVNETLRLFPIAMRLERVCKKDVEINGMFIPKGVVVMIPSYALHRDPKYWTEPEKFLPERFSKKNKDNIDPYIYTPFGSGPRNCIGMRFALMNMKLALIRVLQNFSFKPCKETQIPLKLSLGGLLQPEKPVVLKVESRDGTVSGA
Procedure: as §1

IC50 [1] [µM]	IC50 [3] [µM]	IC50 [4] [µM]	melting point [°C]	SMILES	Inhibitory rate (%) of TNFα production in 0.5 mg/kg [2] [%]
0.003				O=c1c2c(Cc3ccccc3)n[nH]c2c2cccnc2n1-c1cccc(OC(F)(F)F)c1 [Example 1, 3-Benzyl-5-(3-trifluoromethoxyphenyl)-1H-pyrazolo[4,3-c][1,8]-naphthyridin-4(5H)-one]	47
0.014	> 10	8.9		CC(c1ccccc1)c1n[nH]c2c1c(=O)n(-c1ccccc1)c1ncccc21 (stereo not shown) [Example 11, 5-Phenyl-3-(1-phenylethyl)-1H-pyrazolo[4,3-c][1,8]naphthyridin-4(5H)-one]	49
0.003	> 10	> 10	292 to 294	O=c1c2c(Cc3ccccc3C(F)(F)F)n[nH]c2c2cccnc2n1-c1ccccc1 [Example 8, 5-Phenyl-3-(2-trifluoromethylbenzyl)-1H-pyrazolo[4,3-c][1,8]naphthyridin-4(5H)-one]	51
0.007				O=c1c2c(Cc3ccccc3)n[nH]c2c2cccnc2n1-c1cccc(C(F)(F)F)c1 [Example 2, 3-Benzyl-5-(3-trifluoromethylphenyl)-1H-pyrazolo[4,3-c][1,8]-naphthyridin-4(5H)-one]	55
